From patent US8324198B1, “Monocarbams” (Pfizer Inc., priority 2008, dated 2012) come the findings set out here.

The test system of assay [1] is Pseudomonas aeruginosa 1045-06. Nature of the assay: In vitro MIC, Pseudomonas aeruginosa 1045-06. To be noted: strain 1045-06, resistant to carbapenems, aminoglycosides and fluoroquinolones. Type of assay: cell-based. The source says: (§1) Culture collection strain 1045-06 is resistant to several classes of known antimicrobial agents including carbapenems, aminoglycosides and fluoroquinolones, while strains 1000-02 and 3167 are resistant to cephalosporins. Strain PA0200 is a derivative of laboratory strain PAO1 that lacks a functional MexAB-oprM efflux pump.

Assay [2] relates to Klebsiella pneumoniae 1000-02. The assay can be described thus: In vitro MIC, Klebsiella pneumoniae 1000-02. The settings on record: strain 1000-02, resistant to cephalosporins. In kind it is cell-based.
Source text: as §1

Assay [3] relates to Acinetobacter baumanii 3167. The assay can be described thus: In vitro MIC, Acinetobacter baumanii 3167. In kind it is cell-based. The settings on record: strain 3167, resistant to cephalosporins.
Source text: as §1

The subject of assay [4] is P. aeruginosa 1091-05. The assay can be described thus: In vitro MIC, P. aeruginosa 1091-05. In kind it is cell-based.
The subject of assay [5] is P. aeruginosa 1091-05. The assay can be described thus: Murine respiratory tract infection model against P. aeruginosa 1091-05 (PD50). Type of assay: in vivo. On the procedure: For this model, C3H/HeN mice were immunosuppressed with cyclophosphamide given orally at 150 mg/kg and 100 mg/kg on days −4 and −1 relative to challenge, respectively. Mice were anesthetized with isoflurane (5% in oxygen) and the bacterial inoculum was given to each mouse via intranasal instillation in a 40 μL volume (˜2.8×10^3 cfu per mouse). Mice were dosed with compound administered via subcutaneous injection beginning at four hours post-challenge, and continuing for two days of BID therapy.
PD50 is a measure of the ability of a compound to protect mice from a lethal infection.

In the case of `C[C@H](O)Cn1c(-c2cc(=O)c(O)c[nH]2)nn(S(=O)(=O)NC(=O)N2C[C@H](NC(=O)/C(=N\OC(C)(C)C(=O)[O-])c3csc(N)n3)C2=O)c1=O.C[C@H](O)Cn1c(-c2cc(=O)c(O)c[nH]2)nn(S(=O)(=O)NC(=O)N2C[C@H](NC(=O)/C(=N\OC(C)(C)C(=O)[O-])c3csc(N)n3)C2=O)c1=O.[Na+].[Na+]` [Example 7, 2-({[(1Z)-1-(2-amino-1,3-thiazol-4-yl)-2-({(3S)-1-[({3-(5-hydroxy-4-oxo-1,4-dihydropyridin-2-yl)-4-[(2S)-2-hydroxypropyl]-5-oxo-4,5-dihydro-1H-1,2,4-triazol-1-yl}sulfonyl)carbamoyl]-2-oxoazetidin-3-yl}amino)-2-oxoethylidene]amino}oxy)-2-methylpropanoic acid, disodium salt], the “MIC Pseudomonas aeruginosa 1045-06” value in assay [1] was 250 µg/mL. For the same compound, the “MIC Klebsiella pneumoniae 1000-02” value in assay [2] came out at 250 µg/mL. Besides, the “MIC Acinetobacter baumanii 3167” value in assay [3] was found to be 1000 µg/mL. The “Pa 1091-05 MIC” value in the assay on P. aeruginosa 1091-05 [4] was determined as 125 µg/mL. Besides, in the assay on P. aeruginosa 1091-05 [5] (immunosuppressed C3H/HeN mice, intranasal challenge, subcutaneous BID for two days from 4 h post-challenge, lethality over ten days, disodium salt), the “RTI PD50 vs. Pa 1091-05 (95% confidence interval)” value is 15.7 (8.45-22.96) mg/kg. The “Efficacy relative to Comparative Example A (PD50, 95% confidence intervals)” value in the assay on P. aeruginosa 1091-05 [5] (murine respiratory tract infection model, P. aeruginosa 1091-05) is listed as “significantly more efficacious relative to Comparative Example A”.
